Data reported in patent publication US9926281B2 (priority 2014, dated 2018).
Like-named read-outs stand apart in the source and are kept apart here.

What was measured:
human ADAMTS-5 [1] = molecular target: T1, human ADAMTS-5 (Homo sapiens (Human), UniProt Q9UNA0); conditions: read-out: hADAMTS-5 potency IC50
human TACE = human TACE (Homo sapiens (Human), UniProt P78536); conditions: read-out: TACE potency IC50
rnADAMTS-5 (1-564-6H) = rnADAMTS-5 (1-564-6H) (Rattus norvegicus, UniProt Q6TY19); conditions: read-out: Rat ADAMTS-5 potency IC50
human ADAMTS-5 [2] = molecular target: T1, human ADAMTS-5; conditions: read-out: hADAMTS-5 potency IC50; remark: listed apart in the source
Experimental: Finally, the fluorescence is read on the Envision (Perkin Elmer) after an incubation of 90 min at 37° C.

human MMP13 = human MMP13 (Homo sapiens (Human), UniProt P45452); conditions: read-out: hMMP-13 potency IC50
Experimental: Human MMP13 is preactivated by incubated the enzyme in the same buffer complemented with 1 mM freshly prepared p-Aminophenylmercuric acetate (AMPA) for 1 hour at 37° C.

T1 sequence (Q9UNA0 262-930): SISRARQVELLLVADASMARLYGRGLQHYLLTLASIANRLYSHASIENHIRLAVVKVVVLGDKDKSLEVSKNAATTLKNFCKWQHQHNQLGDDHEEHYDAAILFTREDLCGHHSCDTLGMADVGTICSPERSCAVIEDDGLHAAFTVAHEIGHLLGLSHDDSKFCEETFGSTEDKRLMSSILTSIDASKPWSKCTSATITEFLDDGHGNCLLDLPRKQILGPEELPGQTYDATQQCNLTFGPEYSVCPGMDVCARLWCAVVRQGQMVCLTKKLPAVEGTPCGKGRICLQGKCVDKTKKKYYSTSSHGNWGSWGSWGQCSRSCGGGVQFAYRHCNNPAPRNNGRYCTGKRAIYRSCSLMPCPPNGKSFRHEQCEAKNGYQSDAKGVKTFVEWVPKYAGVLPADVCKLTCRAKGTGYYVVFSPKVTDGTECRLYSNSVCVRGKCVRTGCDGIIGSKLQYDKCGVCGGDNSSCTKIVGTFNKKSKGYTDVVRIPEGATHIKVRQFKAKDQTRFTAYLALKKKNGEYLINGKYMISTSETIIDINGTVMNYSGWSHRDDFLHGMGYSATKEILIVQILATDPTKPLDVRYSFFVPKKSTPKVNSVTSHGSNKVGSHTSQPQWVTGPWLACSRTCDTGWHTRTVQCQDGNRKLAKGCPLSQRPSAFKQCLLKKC
Chain of human TACE (P78536 whole entry, looked up, change not shown): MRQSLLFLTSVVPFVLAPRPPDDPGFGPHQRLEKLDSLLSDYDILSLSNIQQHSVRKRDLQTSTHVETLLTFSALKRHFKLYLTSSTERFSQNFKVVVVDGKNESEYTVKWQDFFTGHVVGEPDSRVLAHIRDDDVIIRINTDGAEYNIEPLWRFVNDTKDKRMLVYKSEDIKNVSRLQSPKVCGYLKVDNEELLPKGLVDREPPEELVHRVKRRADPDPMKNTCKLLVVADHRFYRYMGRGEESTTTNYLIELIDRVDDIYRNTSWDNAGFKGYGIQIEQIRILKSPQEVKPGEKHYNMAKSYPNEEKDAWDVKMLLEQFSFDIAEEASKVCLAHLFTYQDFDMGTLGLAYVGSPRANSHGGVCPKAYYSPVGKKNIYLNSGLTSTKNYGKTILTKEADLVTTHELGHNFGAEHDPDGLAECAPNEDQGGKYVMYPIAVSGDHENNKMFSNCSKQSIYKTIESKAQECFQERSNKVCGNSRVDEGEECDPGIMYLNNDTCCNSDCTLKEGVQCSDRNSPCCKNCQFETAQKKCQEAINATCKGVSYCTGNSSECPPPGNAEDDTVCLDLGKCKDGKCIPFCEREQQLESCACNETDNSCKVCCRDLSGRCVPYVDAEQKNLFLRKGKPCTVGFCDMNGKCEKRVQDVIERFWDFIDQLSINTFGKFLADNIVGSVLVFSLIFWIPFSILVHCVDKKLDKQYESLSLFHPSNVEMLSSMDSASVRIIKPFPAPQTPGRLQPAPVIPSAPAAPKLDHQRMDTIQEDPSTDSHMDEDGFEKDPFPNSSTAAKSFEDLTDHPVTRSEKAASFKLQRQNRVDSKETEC

Structure (SMILES) | IC50 (human ADAMTS-5 [1]) | IC50 (human TACE) | IC50 (rnADAMTS-5 (1-564-6H)) | IC50 (human ADAMTS-5 [2]) | IC50 (human MMP13)
Cc1ccc(N2CCN(C(=O)CCC3(c4ccccc4)NC(=O)NC3=O)CC2)c(C)c1 (stereo not shown) [compound 31, 5-[3-[4-(2,4-dimethylphenyl)piperazin-1-yl]-3-oxo-propyl]-5-phenyl-imidazolidine-2,4-dione] | 1060 nM | – | – | – | –
Cc1ccc(N2CCN(C(=O)CCC3(C)NC(=O)NC3=O)CC2)c(C)c1 (stereo not shown) [compound 38, 5-[3-[4-(2,4-dimethylphenyl)piperazin-1-yl]-3-oxo-propyl]-5-methyl-imidazolidine-2,4-dione] | > 4000 nM | – | – | – | –
CC1(CCC(=O)N2CCN(c3cccc(Cl)c3Cl)CC2)NC(=O)NC1=O (stereo not shown) [compound 41, 5-[3-[4-(2,3-dichlorophenyl)piperazin-1-yl]-3-oxo-propyl]-5-methyl-imidazolidine-2,4-dione] | 2660 nM | – | – | – | –
CC1(CCC(=O)N2CCN(c3ccccn3)CC2)NC(=O)NC1=O (stereo not shown) [compound 42, 5-methyl-5-[3-oxo-3-[4-(2-pyridyl)piperazin-1-yl]propyl]imidazolidine-2,4-dione] | > 3980 nM | – | – | – | –
CC1(CCC(=O)N2CCN(c3cccc(Br)c3)CC2)NC(=O)NC1=O (stereo not shown) [compound 48, 5-[3-[4-(3-bromophenyl)piperazin-1-yl]-3-oxo-propyl]-5-methyl-imidazolidine-2,4-dione] | 391 nM | – | – | – | –
CN(C)CCC1(CCC(=O)N2CCN(c3cc(Cl)cc(Cl)c3)CC2)NC(=O)NC1=O (stereo not shown) [compound 58, 5-[3-[4-(3,5-dichlorophenyl)piperazin-1-yl]-3-oxo-propyl]-5-(2-dimethylaminoethyl)imidazolidine-2,4-dione] | > 20000 nM | – | – | – | –
CC1(CCC(=O)N2CCN(c3nccs3)CC2)NC(=O)NC1=O (stereo not shown) [compound 59, 5-methyl-5-[3-oxo-3-(4-thiazol-2-ylpiperazin-1-yl)propyl]imidazolidine-2,4-dione] | > 20000 nM | – | – | – | –
Cc1ccc(F)cc1N1CCN(C(=O)C(C)CC2(C)NC(=O)NC2=O)CC1 (stereo not shown) [compound 175, 5-[3-[4-(5-fluoro-2-methyl-phenyl)piperazin-1-yl]-2-methyl-3-oxo-propyl]-5-methyl-imidazolidine-2,4-dione] | – | 251 nM | 22 nM | 25 nM | > 20000 nM
Cc1c(Cl)cccc1N1CCN(C(=O)C(C)CC2(C3CC3)NC(=O)NC2=O)CC1 (stereo not shown) [compound 176, 5-[3-[4-(3-chloro-2-methyl-phenyl)piperazin-1-yl]-2-methyl-3-oxo-propyl]-5-cyclopropyl-imidazolidine-2,4-dione] | – | 1230 nM | 7 nM | 16 nM | > 20000 nM
Cc1c(Cl)cc(Cl)cc1N1CCN(C(=O)CCC2(C3CC3)NC(=O)NC2=O)C[C@@H]1C (stereo partly drawn) [compound 177, 5-cyclopropyl-5-[3-[(3S)-4-(3,5-dichloro-2-methyl-phenyl)-3-methyl-piperazin-1-yl]-3-oxo-propyl]imidazolidine-2,4-dione] | – | 1990 nM | 40 nM | 78 nM | > 20000 nM
NCC1(CCC(=O)N2CCN(c3cc(Cl)cc(Cl)c3)CC2)NC(=O)NC1=O (stereo not shown) [compound 180, 5-(aminomethyl)-5-[3-[4-(3,5-dichlorophenyl)piperazin-1-yl]-3-oxo-propyl]imidazolidine-2,4-dione] | – | > 4000 nM | 241 nM | 177 nM | > 20000 nM
COCCNC(=O)CC1(CCC(=O)N2CCN(c3cc(Cl)cc(Cl)c3)CC2)NC(=O)NC1=O (stereo not shown) [compound 187, 2-[4-[3-[4-(3,5-dichlorophenyl)piperazin-1-yl]-3-oxo-propyl]-2,5-dioxo-imidazolidin-4-yl]-N-(2-methoxyethyl)acetamide] | – | > 20000 nM | 396 nM | 456 nM | 2610 nM
CC(CC1(C2CC2)NC(=O)NC1=O)C(=O)N1CCN(c2cccc(F)c2)[C@@H](C)C1 (stereo partly drawn) [compound 190, 5-cyclopropyl-5-[3-[(3S)-4-(3-fluorophenyl)-3-methyl-piperazin-1-yl]-2-methyl-3-oxo-propyl]imidazolidine-2,4-dione] | – | > 20000 nM | 15 nM | 22 nM | 3060 nM
CC(CC1(C2CC2)NC(=O)NC1=O)C(=O)N1CCN(c2ccc(F)c(F)c2)[C@@H](C)C1 (stereo partly drawn) [compound 191, 5-cyclopropyl-5-[3-[(3S)-4-(3,4-difluorophenyl)-3-methyl-piperazin-1-yl]-2-methyl-3-oxo-propyl]imidazolidine-2,4-dione] | – | > 20000 nM | 11 nM | 20 nM | 1880 nM
CC(CC1(C2CC2)NC(=O)NC1=O)C(=O)N1CCN(c2ccc(F)c(Cl)c2)[C@@H](C)C1 (stereo partly drawn) [compound 192, 5-[3-[(3S)-4-(3-chloro-4-fluoro-phenyl)-3-methyl-piperazin-1-yl]-2-methyl-3-oxo-propyl]-5-cyclopropyl-imidazolidine-2,4-dione] | – | > 4000 nM | 6 nM | 11 nM | 865 nM
CC(CC1(C2CC2)NC(=O)NC1=O)C(=O)N1CCN(c2ccc(Cl)cc2)[C@@H](C)C1 (stereo partly drawn) [compound 193, 5-[3-[(3S)-4-(4-chlorophenyl)-3-methyl-piperazin-1-yl]-2-methyl-3-oxo-propyl]-5-cyclopropyl-imidazolidine-2,4-dione] | – | > 20000 nM | 7 nM | 23 nM | 433 nM
CC(CC1(C2CC2)NC(=O)NC1=O)C(=O)N1CCN(c2cc(F)cc(Cl)c2)[C@@H](C)C1 (stereo partly drawn) [compound 194, 5-[3-[(3S)-4-(3-chloro-5-fluoro-phenyl)-3-methyl-piperazin-1-yl]-2-methyl-3-oxo-propyl]-5-cyclopropyl-imidazolidine-2,4-dione] | – | > 4000 nM | 5 nM | 11 nM | 952 nM
CC(CC1(C2CNC2)NC(=O)NC1=O)C(=O)N1CCN(c2cc(Cl)cc(Cl)c2)CC1 (stereo not shown) [compound 196] | – | > 3930 nM | 104 nM | 102 nM | > 20000 nM
CSCCC1(CC(C)C(=O)N2CCN(c3cc(Cl)cc(Cl)c3)CC2)NC(=O)NC1=O (stereo not shown) [compound 197, 5-[3-[4-(3,5-dichlorophenyl)piperazin-1-yl]-2-methyl-3-oxo-propyl]-5-(2-methylsulfanylethyl)imidazolidine-2,4-dione] | – | 134 nM | 21 nM | 26 nM | > 4000 nM
CC(CC1(CC2CCN(C(=O)OC(C)(C)C)CC2)NC(=O)NC1=O)C(=O)N1CCN(c2cc(Cl)cc(Cl)c2)CC1 (stereo not shown) [compound 198, tert-butyl 4-[[4-[3-[4-(3,5-dichlorophenyl)piperazin-1-yl]-2-methyl-3-oxo-propyl]-2,5-dioxo-imidazolidin-4-yl]methyl]piperidine-1-carboxylate] | – | 817 nM | 38 nM | 52 nM | 1940 nM
CC(CC1(C2CCOCC2)NC(=O)NC1=O)C(=O)N1CCN(c2cc(Cl)cc(Cl)c2)CC1 (stereo not shown) [compound 199, 5-[3-[4-(3,5-dichlorophenyl)piperazin-1-yl]-2-methyl-3-oxo-propyl]-5-tetrahydropyran-4-yl-imidazolidine-2,4-dione] | – | 1050 nM | 48 nM | 62 nM | > 20000 nM
COC(CC1(C2CC2)NC(=O)NC1=O)C(=O)N1CCN(c2cc(Cl)cc(Cl)c2)CC1 (stereo not shown) [compound 206, 5-cyclopropyl-5-[3-[4-(3,5-dichlorophenyl)piperazin-1-yl]-2-methoxy-3-oxo-propyl]imidazolidine-2,4-dione] | – | > 4000 nM | 40 nM | 60 nM | > 4000 nM
C[C@H]1CN(C(=O)CC[C@@]2(C3CC3)NC(=O)NC2=O)CCN1c1ccc(Cl)c(Cl)c1 [compound 207, (5S)-5-cyclopropyl-5-[3-[(3S)-4-(3,4-dichlorophenyl)-3-methyl-piperazin-1-yl]-3-oxo-propyl]imidazolidine-2,4-dione] | – | > 4000 nM | 6 nM | 12 nM | 2880 nM
CN(C)c1cccc(N2CCN(C(=O)CCC3(C4CC4)NC(=O)NC3=O)CC2)c1 (stereo not shown) [compound 209, 5-cyclopropyl-5-[3-[4-[3-(dimethylamino)phenyl]piperazin-1-yl]-3-oxo-propyl]imidazolidine-2,4-dione] | – | > 4000 nM | 565 nM | 836 nM | > 20000 nM
CC(CC1(C)NC(=O)NC1=O)C(=O)N1CCN(c2ccc(F)c(F)c2)CC1 (stereo not shown) [compound 211, 5-[3-[4-(3,4-difluorophenyl)piperazin-1-yl]-2-methyl-3-oxo-propyl]-5-methyl-imidazolidine-2,4-dione] | – | 3740 nM | 23 nM | 48 nM | 377 nM
CC(CC1(C)NC(=O)NC1=O)C(=O)N1CCN(c2cc(F)cc(F)c2)[C@@H](C)C1 (stereo partly drawn) [compound 213, 5-[3-[(3S)-4-(3,5-difluorophenyl)-3-methyl-piperazin-1-yl]-2-methyl-3-oxo-propyl]-5-methyl-imidazolidine-2,4-dione] | – | > 20000 nM | 21 nM | 30 nM | > 4000 nM
Cc1ccc(F)cc1N1CCN(C(=O)C(C)CC2(C)NC(=O)NC2=O)C[C@@H]1C (stereo partly drawn) [compound 216, 5-[3-[(3S)-4-(5-fluoro-2-methyl-phenyl)-3-methyl-piperazin-1-yl]-2-methyl-3-oxo-propyl]-5-methyl-imidazolidine-2,4-dione] | – | > 4000 nM | 250 nM | 305 nM | > 20000 nM
CC(CC1(C)NC(=O)NC1=O)C(=O)N1CCN(c2ccc(F)c(Cl)c2)[C@@H](C)C1 (stereo partly drawn) [compound 405, 5-{3-[(S)-4-(3-Chloro-4-fluoro-phenyl)-3-methyl-piperazin-1-yl]-2-methyl-3-oxo-propyl}-5-methyl-imidazolidine-2,4-dione] | – | > 4000 nM | 18 nM | 22 nM | 2330 nM
